Test system: drug sensitive strain
Test: Antibiotic susceptibility profiling with recombinant PB1 phages, drug sensitive strain
Assay type: cell-based, Pseudomonas aeruginosa
Text: In some embodiments of the method, the differences in the reporter gene expression of the recombinant PB1 bacteriophage observed in the antibiotic treated sub-sample and the untreated control sub-sample is defined as μ.

gentamicin
luciferase activity of antibiotic treated sample (versus 'no drug' sample (FIG. 4B)): decline in luciferase activity | μ value over time (μ = difference in reporter expression, treated vs untreated (FIG. 4B)): steady increase in μ value over time

Source: patent US10174293B1, “Recombinant PB1 bacteriophages and uses thereof” (Charles Stark Draper Laboratory, Inc., priority 2018, dated 2019)
